Data taken from ChEMBL document CHEMBL1909046, “DrugMatrix in vitro pharmacology data”.

Experiments:
[1] = DRUGMATRIX: beta-Lactamase enzyme inhibition (substrate: Nitrocefin); design: species or system Bacillus cereus; details: Not Active = under 50% inhibition at 10 µM
Substance-K receptor = molecular target: T1, Substance-K receptor (Homo sapiens, UniProt P21452); type: cell membranes, CHO, Membrane; details: cho; further: in other assays of this panel Not Active means under 50% inhibition at 10 µM
T1 sequence (P21452 whole entry): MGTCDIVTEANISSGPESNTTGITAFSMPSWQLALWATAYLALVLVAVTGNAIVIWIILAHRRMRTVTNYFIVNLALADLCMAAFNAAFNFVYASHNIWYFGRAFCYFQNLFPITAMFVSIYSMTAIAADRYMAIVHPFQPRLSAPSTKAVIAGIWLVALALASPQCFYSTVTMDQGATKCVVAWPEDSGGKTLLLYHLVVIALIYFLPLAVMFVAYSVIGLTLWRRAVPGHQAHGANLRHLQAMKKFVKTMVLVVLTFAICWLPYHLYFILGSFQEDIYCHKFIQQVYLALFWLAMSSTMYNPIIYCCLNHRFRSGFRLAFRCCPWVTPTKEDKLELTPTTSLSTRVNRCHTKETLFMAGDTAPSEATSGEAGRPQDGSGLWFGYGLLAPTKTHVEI

[2] = molecular target: T2, Alpha-2A adrenergic receptor (Homo sapiens, UniProt P08913); type: cell membranes, Sf9, Membrane; details: sf9; further: in other assays of this panel Not Active means under 50% inhibition at 10 µM
T2 sequence (P08913 whole entry): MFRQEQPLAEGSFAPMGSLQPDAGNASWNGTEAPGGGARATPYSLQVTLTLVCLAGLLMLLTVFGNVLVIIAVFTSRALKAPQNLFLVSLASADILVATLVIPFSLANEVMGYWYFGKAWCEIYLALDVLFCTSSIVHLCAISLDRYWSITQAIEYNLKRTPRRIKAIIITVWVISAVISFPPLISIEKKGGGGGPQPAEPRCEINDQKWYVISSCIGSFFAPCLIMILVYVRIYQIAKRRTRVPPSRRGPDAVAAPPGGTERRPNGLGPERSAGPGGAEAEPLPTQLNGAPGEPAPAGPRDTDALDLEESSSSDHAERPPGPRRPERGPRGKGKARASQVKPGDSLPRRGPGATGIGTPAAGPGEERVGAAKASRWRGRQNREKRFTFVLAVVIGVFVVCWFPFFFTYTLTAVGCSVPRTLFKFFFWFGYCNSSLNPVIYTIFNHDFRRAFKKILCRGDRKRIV

[3] = molecular target: C-C chemokine receptor type 2 (Homo sapiens, UniProt P41597); type: cell membranes, CHO-K1, Membrane; details: cho-k1; further: in other assays of this panel Not Active means under 50% inhibition at 10 µM
Sequence of C-C chemokine receptor type 2 (P41597 whole entry): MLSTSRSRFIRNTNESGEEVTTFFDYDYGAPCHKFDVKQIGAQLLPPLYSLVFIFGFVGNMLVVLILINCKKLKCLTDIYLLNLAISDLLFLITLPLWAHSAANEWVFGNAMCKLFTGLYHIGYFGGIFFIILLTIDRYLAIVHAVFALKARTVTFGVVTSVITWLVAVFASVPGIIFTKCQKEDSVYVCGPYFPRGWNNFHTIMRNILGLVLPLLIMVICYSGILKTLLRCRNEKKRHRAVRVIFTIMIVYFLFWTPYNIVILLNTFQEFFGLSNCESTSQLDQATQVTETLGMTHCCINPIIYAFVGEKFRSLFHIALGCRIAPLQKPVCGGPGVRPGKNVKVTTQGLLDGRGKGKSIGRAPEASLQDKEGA

[4] = DRUGMATRIX: Calcium Channel Type L, Dihydropyridine radioligand binding (ligand: [3H] Nitrendipine); type: cell membranes, Rattus norvegicus, Wistar, Cerebral cortex, Membrane; details: Not Active = under 50% inhibition at 10 µM
[5] = DRUGMATRIX: Atrial Natriuretic Factor (ANF) radioligand binding (ligand: [125I] ANF (rat)); type: cell membranes, Cavia porcellus, Dunkin-Hartley, Adrenal gland, Membrane; details: Not Active = under 50% inhibition at 10 µM

Nn1nnc2ccccc21
Not Active: IC50 [1] | Ki [1] | IC50 (Substance-K receptor) | IC50 [2] | IC50 [3] | IC50 [4] | Ki [4] | IC50 [5] | Ki [5]

CC(C)(CO)C(O)C(=O)NCCCO (centres undefined) [PANTHENOL]
Not Active: IC50 [1] | Ki [1] | IC50 (Substance-K receptor) | IC50 [2] | IC50 [3] | IC50 [4] | Ki [4] | IC50 [5] | Ki [5]

O=C(O)Cc1ccc(-c2ccccc2)cc1 [FELBINAC]
Not Active: IC50 [1] | Ki [1] | IC50 (Substance-K receptor) | IC50 [2] | IC50 [3] | IC50 [4] | Ki [4] | IC50 [5] | Ki [5]

O=C(O)c1cccnc1 [NIACIN]
Not Active: IC50 [1] | Ki [1] | IC50 (Substance-K receptor) | IC50 [2] | IC50 [3] | IC50 [4] | Ki [4] | IC50 [5] | Ki [5]

C[C@H](C(=O)O)c1cccc(C(=O)c2ccccc2)c1 [DEXKETOPROFEN]
Not Active: IC50 [1] | Ki [1] | IC50 (Substance-K receptor) | IC50 [2] | IC50 [3] | IC50 [4] | Ki [4] | IC50 [5] | Ki [5]

CC[C@H]1OC(=O)[C@H](C)[C@@H](O[C@H]2C[C@@](C)(OC)[C@@H](O)[C@H](C)O2)[C@H](C)[C@@H](O[C@@H]2O[C@H](C)C[C@H](N(C)C)[C@H]2O)[C@](C)(OC)C[C@@H](C)C(=O)[C@H](C)[C@@H](O)[C@]1(C)O [CLARITHROMYCIN]
Not Active: IC50 [1] | Ki [1] | IC50 (Substance-K receptor) | IC50 [2] | IC50 [3] | IC50 [4] | Ki [4] | IC50 [5] | Ki [5]
